{"source": "patent US8716292B2", "about": "“Riminophenazines with 2-(heteroaryl)amino substituents and their anti-microbial activity” (priority 2010, dated 2014)"}
{"tested_on": "Mycobacterium tuberculosis H37Rv strains", "experiment": "In vitro assay for antimicrobial susceptibility (microplate Alamar blue MIC)", "format": "cell-based", "conditions": "Mycobacterium tuberculosis, H37RV, 7H9, Alamar blue, inhibition ≧90%; read-out: MIC (μg/mL) against H37Rv", "units": {"MIC": "µg/mL"}}
{"smiles": "CC(C)/N=c1\\cc2n(-c3ccc(OC(F)(F)F)cc3)c3ccccc3nc-2cc1Nc1cnccn1", "note": "[TBI-953, 5-(4-Trifluoromethoxyphenyl)-3-(1-methylethyl)imino-2-(pyrazin-2-yl)amino-3,5-dihydrophenazine]", "MIC": 0.015}
{"smiles": "CC(C)/N=c1\\cc2n(-c3ccc(F)cc3)c3ccccc3nc-2cc1Nc1cnccn1", "note": "[TBI-1055, 5-(4-Fluorophenyl)-3-(1-methylethyl)imino-2-(pyrazin-2-yl)amino-3,5-dihydrophenazine]", "MIC": 0.022}
{"smiles": "COC1CCC(/N=c2\\cc3n(-c4ccc(Cl)cc4)c4ccccc4nc-3cc2Nc2cnccn2)CC1", "note": "(stereo not drawn) [TBI-1091, 5-(4-Chlorophenyl)-3-(4-methoxycyclohexyl)imino-2-(pyrazin-2-yl)amino-3,5-dihydrophenazine]", "MIC": 0.018}
{"smiles": "Clc1ccc(-n2c3c/c(=N\\C4CCOCC4)c(Nc4ncccn4)cc-3nc3ccccc32)cc1", "note": "[TBI-860, 5-(4-Chlorophenyl)-3-(4-tetrahydropyranyl)imino-2-(pyrimidin-2-yl)amino-3,5-dihydrophenazine]", "MIC": 0.029}
{"tested_on": "Mycobacterium tuberculosis H37Rv strains", "experiment": "In vitro assay for antimicrobial susceptibility (microplate Alamar blue MIC)", "format": "cell-based", "conditions": "Mycobacterium tuberculosis, H37RV, in vitro, Mycobacterium tuberculosis H37Rv strains; read-out: MIC (μg/mL) against H37Rv", "units": {"MIC": "µg/mL"}}
{"smiles": "COc1ncccc1Nc1cc2nc3ccccc3n(-c3ccc(OC(F)(F)F)cc3)c-2c/c1=N\\C1CCC(OC)CC1", "note": "(stereo not drawn) [TBI-166, 5-(4-Trifluoromethoxyphenyl)-(4-methoxycyclohexyl)imino-2-(2-methoxy-3-pyridyl)amino-3,5-dihydrophenazine]", "MIC": 0.016}
{"smiles": "FC(F)(F)Oc1ccc(-n2c3c/c(=N\\C4CCOCC4)c(Nc4cccnc4)cc-3nc3ccccc32)cc1", "note": "[TBI-161, 5-(4-Trifluoromethoxyphenyl)-3-(4-tetrahydropyranyl)imino-2-(3-pyridyl)amino-3,5-dihydrophenazine]", "MIC": 0.03}
{"smiles": "COC1CCC(/N=c2\\cc3n(-c4ccc(Cl)cc4)c4ccccc4nc-3cc2Nc2ccc(C)nc2)CC1", "note": "(stereo not drawn) [TBI-450, 5-(4-Chlorophenyl)-3-(4-methoxycyclohexyl)imino-2-(6-methyl-3-pyridyl)amino-3,5-dihydrophenazine]", "MIC": 0.016}
{"smiles": "Cc1ccc(Nc2cc3nc4ccccc4n(-c4ccc(Cl)cc4)c-3c/c2=N\\C(C)C)cn1", "note": "[TBI-441]", "MIC": 0.06}
{"smiles": "Cc1ccc(-n2c3c/c(=N\\C4CC4)c(Nc4cccnc4C)cc-3nc3ccccc32)cc1", "note": "[TBI-341, 5-(4-Methylphenyl)-3-cyclopropylimino-2-(2-methyl-3-pyridyl)amino-3,5-dihydrophenazine]", "MIC": 0.014}
{"smiles": "COc1ncccc1Nc1cc2nc3cc(F)ccc3n(-c3ccc(OC(F)(F)F)cc3)c-2c/c1=N\\C1CCCCC1", "note": "[TBI-862, 8-Fluoro-5-(4-trifluoromethoxyphenyl)-3-cyclohexylimino-2-(2-methoxy-3-pyridyl)amino-3,5-dihydrophenazine]", "MIC": 0.088}
{"smiles": "CC(=O)Nc1ccc(Nc2cc3nc4ccccc4n(-c4ccc(F)cc4)c-3c/c2=N\\C2CCOCC2)cn1", "note": "[TBI-911, 5-(4-Fluorophenyl)-3-(4-tetrahydropyranyl)imino-2-(6-acetamino-3-pyridyl)amino-3,5-dihydrophenazine]", "MIC": 0.36}
{"smiles": "Cc1ccc(Nc2cc3nc4ccccc4n(-c4ccccc4)c-3c/c2=N\\C2CCN(C)CC2)cn1", "note": "[TBI-069, 5-Phenyl-3-(N-methyl-4-piperidyl)imino-2-(6-methyl-3-pyridyl)amino-3,5-dihydrophenazine]", "MIC": 0.219}
{"smiles": "CC(C)CN1CCC(/N=c2\\cc3n(-c4ccc(OC(F)(F)F)cc4)c4ccccc4nc-3cc2Nc2cccnc2)CC1", "note": "[TBI-158, 5-(4-Trifluoromethoxyphenyl)-3-(N-isobutyl-4-piperidyl)imino-2-(3-pyridyl)amino-3,5-dihydrophenazine]", "MIC": 0.03}
{"smiles": "CC(=O)Nc1ccc(Nc2cc3nc4ccccc4n(-c4ccc(F)cc4)c-3c/c2=N\\C2CCN(C)CC2)cn1", "note": "[TBI-912, 5-(4-Fluorophenyl)-3-(N-methyl-4-piperidyl)imino-2-(6-acetamino-3-pyridyl)amino-3,5-dihydrophenazine]", "MIC": 0.351}
{"smiles": "COCC(C/N=c1\\cc2n(-c3ccc(Cl)cc3)c3ccccc3nc-2cc1Nc1cccnc1OC)OC", "note": "(stereo not drawn) [TBI-872, 5-(4-Chlorophenyl)-3-(2,3-dimethoxy-1-propyl)imino-2-(2-methoxy-3-pyridyl)amino-3,5-dihydrophenazine]", "MIC": 0.06}
{"smiles": "COCC(C/N=c1\\cc2n(-c3ccc(F)cc3)c3ccccc3nc-2cc1Nc1cccnc1OC)OC", "note": "(stereo not drawn) [TBI-1049, 5-(4-Fluorophenyl)-3-(2,3-dimethoxy-1-propyl)imino-2-(2-methoxy-3-pyridyl)amino-3,5-dihydrophenazine]", "MIC": 0.162}
{"smiles": "COc1ncccc1Nc1cc2nc3ccccc3n(-c3ccc(C)cc3)c-2c/c1=N\\C1CC1", "note": "[TBI-339, 5-(4-Methylphenyl)-3-cyclopropylimino-2-(2-methoxy-3-pyridyl)amino-3,5-dihydrophenazine]", "MIC": 0.033}
{"smiles": "Cc1ccc(-n2c3c/c(=N\\C4CC4)c(Nc4cccnc4)cc-3nc3ccccc32)cc1", "note": "[TBI-349, 5-(4-Methylphenyl)-3-cyclopropylimino-2-(3-pyridyl)amino-3,5-dihydrophenazine]", "MIC": 0.0075}
{"smiles": "Cc1ccc(-n2c3c/c(=N\\C4CCOCC4)c(Nc4cccnc4C)cc-3nc3ccccc32)cc1", "note": "[TBI-323, 5-(4-Methylphenyl)-3-(4-tetrahydropyranyl)imino-2-(2-methyl-3-pyridyl)amino-3,5-dihydrophenazine]", "MIC": 0.057}
{"smiles": "Cc1ccc(Nc2cc3nc4ccc(F)cc4n(-c4ccc(Cl)cc4)c-3c/c2=N\\C2CCCCC2)cn1", "note": "[TBI-918, 7-Fluoro-5-(4-chlorophenyl)-3-cyclohexylimino-2-(6-methyl-3-pyridyl)amino-3,5-dihydrophenazine]", "MIC": 0.253}
{"smiles": "Cc1ccc(Nc2cc3nc4ccccc4n(-c4ccc(Br)cc4)c-3c/c2=N\\C2CCCCC2)cn1", "note": "[TBI-502, 5-(4-Bromophenyl)-3-cyclohexylimino-2-(6-methyl-3-pyridyl)amino-3,5-dihydrophenazine]", "MIC": 0.217}
{"smiles": "Clc1ccc(-n2c3c/c(=N\\C4CCSCC4)c(Nc4cccnc4)cc-3nc3ccccc32)cc1", "note": "[TBI-458]", "MIC": 0.018}
{"smiles": "Cc1ccc(Nc2cc3nc4ccccc4n(-c4ccc(F)cc4)c-3c/c2=N\\C2CC2)cn1", "note": "[TBI-908, 5-(4-Fluorophenyl)-3-cyclopropylimino-2-(6-methyl-3-pyridyl)amino-3,5-dihydrophenazine]", "MIC": 0.03}
{"smiles": "COc1ccc2nc3cc(Nc4ccc(C)nc4)/c(=N/C(C)C)cc-3n(-c3ccc(Cl)cc3)c2c1", "note": "[TBI-898]", "MIC": 0.25}
{"smiles": "COc1ccc(Nc2cc3nc4ccccc4n(-c4ccc(C(F)(F)F)cc4)c-3c/c2=N\\C2CCOCC2)cn1", "note": "[TBI-733, 5-(4-Trifluoromethylphenyl)-3-(4-tetrahydropyranyl)imino-2-(6-methoxy-3-pyridyl)amino-3,5-dihydrophenazine]", "MIC": 0.111}
{"smiles": "COC1CCC(/N=c2\\cc3n(-c4ccc(Br)cc4)c4ccccc4nc-3cc2Nc2cccnc2C)CC1", "note": "(stereo not drawn) [TBI-509, 5-(4-Bromophenyl)-3-(4-methoxycyclohexyl)imino-2-(2-methyl-3-pyridyl)amino-3,5-dihydrophenazine]", "MIC": 0.015}
{"smiles": "Cc1ccc(Nc2cc3nc4cc(F)ccc4n(-c4ccc(Cl)c(Cl)c4)c-3c/c2=N\\C2CC2)cn1", "note": "[TBI-888]", "MIC": 0.028}
{"smiles": "COc1ccc2nc3cc(Nc4cccnc4OC)/c(=N/C4CCC(OC)CC4)cc-3n(-c3ccc(Cl)cc3)c2c1", "note": "(stereo not drawn) [TBI-941, 7-Methoxy-5-(4-chlorophenyl)-3-(4-methoxycyclohexyl)imino-2-(2-methoxy-3-pyridyl)amino-3,5-dihydrophenazine]", "MIC": 0.06}
{"smiles": "COc1ncccc1Nc1cc2nc3ccccc3n(-c3ccccc3OC(F)(F)F)c-2c/c1=N\\C1CCOCC1", "note": "[TBI-1045, 5-(2-Trifluoromethoxyphenyl)-3-(4-tetrahydropyranyl)imino-2-(2-methoxy-3-pyridyl)amino-3,5-dihydrophenazine]", "MIC": 0.4}
{"smiles": "COCC(COC)/N=c1\\cc2n(-c3ccc(Cl)cc3)c3ccccc3nc-2cc1Nc1cccnc1OC", "note": "[TBI-871, 5-(4-Chlorophenyl)-3-(1,3-dimethoxyisopropyl)imino-2-(2-methoxy-3-pyridyl)amino-3,5-dihydrophenazine]", "MIC": 0.03}
{"smiles": "Cc1ncccc1Nc1cc2nc3ccccc3n(-c3ccc(F)cc3)c-2c/c1=N\\C1CCOCC1", "note": "[TBI-1012, 5-(4-Fluorophenyl)-3-(4-tetrahydropyranyl)imino-2-(2-methyl-3-pyridyl)amino-3,5-dihydrophenazine]", "MIC": 0.026}
{"smiles": "COc1ncccc1Nc1cc2nc3ccccc3n(-c3ccc(Br)cc3)c-2c/c1=N\\C1CCC1", "note": "[TBI-520]", "MIC": 0.043}
{"smiles": "COc1ncccc1Nc1cc2nc3ccccc3n(-c3ccc(C(F)(F)F)cc3)c-2c/c1=N\\C1CCC1", "note": "[TBI-728, 5-(4-Trifluoromethylphenyl)-3-cyclobutylimino-2-(2-methoxy-3-pyridyl)amino-3,5-dihydrophenazine]", "MIC": 0.033}
{"smiles": "COc1ccc(Nc2cc3nc4ccccc4n(-c4ccc(F)cc4)c-3c/c2=N\\C2CC2)cn1", "note": "[TBI-931, 5-(4-Fluorophenyl)-3-cyclopropyimino-2-(6-methoxy-3-pyridyl)amino-3,5-dihydrophenazine]", "MIC": 0.238}
{"tested_on": "H37Rv", "experiment": "In vivo testing: mice infected intravenously with H37Rv, lung tissue CFU counts", "set-up": "species or system Male BALB/c mice", "conditions": "20 mg/kg, gavage 5 times weekly, lung tissue CFU, thirty days postinfection", "description": "(§1) Male BALB/c mice (18˜20 g) were infected intravenously with 0.2 ml portions containing 1×10^5 CFU of H37Rv. One day after the infection, four mice were sacrificed and the numbers of CFU in the spleens and lungs were determined. Organs were removed and homogenized in Middlebrook 7H9 broth. To enumerate CFU, appropriate dilutions of the homogenates were plated onto Middlebrook 7H10 agar and colonies were counted after 3 to 4 weeks of incubation at 37° C. The remaining mice were allocated either to untreated groups or to various drug treated groups (six mice per group). The dose of every test compound was 20 mg/kg. The positive control groups were treated by isoniazid and clofazimine. The test compounds and clofazimine were administered by gavage 5 times weekly. Untreated mice were administered by gavage with CMC. Thirty days postinfection, both untreated and treated mice were sacrificed and lung tissue CFU counts were determined. The significance of the CFU count and organ weight difference was assessed by a two-tailed Student t test. P≦0.01 was considered significant."}
{"smiles": "COc1ncccc1Nc1cc2nc3ccccc3n(-c3ccc(OC(F)(F)F)cc3)c-2c/c1=N\\C1CCC(OC)CC1", "note": "(stereo not drawn) [TBI-166, 5-(4-Trifluoromethoxyphenyl)-(4-methoxycyclohexyl)imino-2-(2-methoxy-3-pyridyl)amino-3,5-dihydrophenazine]", "Log CFU (TBI treated)": 4.66}
{"smiles": "FC(F)(F)Oc1ccc(-n2c3c/c(=N\\C4CCOCC4)c(Nc4cccnc4)cc-3nc3ccccc32)cc1", "note": "[TBI-161, 5-(4-Trifluoromethoxyphenyl)-3-(4-tetrahydropyranyl)imino-2-(3-pyridyl)amino-3,5-dihydrophenazine]", "Log CFU (TBI treated)": 6.05}
{"smiles": "COC1CCC(/N=c2\\cc3n(-c4ccc(Cl)cc4)c4ccccc4nc-3cc2Nc2ccc(C)nc2)CC1", "note": "(stereo not drawn) [TBI-450, 5-(4-Chlorophenyl)-3-(4-methoxycyclohexyl)imino-2-(6-methyl-3-pyridyl)amino-3,5-dihydrophenazine]", "Log CFU (TBI treated)": 3.64}
{"smiles": "COc1ncccc1Nc1cc2nc3ccccc3n(-c3ccc(F)cc3)c-2c/c1=N\\C(C)C", "note": "[TBI-1004, 5-(4-Fluorophenyl)-3-(1-methylethyl)imino-2-(2-methoxy-3-pyridyl)amino-3,5-dihydrophenazine]", "Log CFU (TBI treated)": 4.28}
{"tested_on": "H37Rv", "experiment": "In vivo testing: mice infected intravenously with H37Rv, lung tissue CFU counts", "set-up": "species or system Male BALB/c mice", "conditions": "Mycobacterium tuberculosis, H37RV, iv, 720 h, versus untreated control, lung tissue, thirty days postinfection, read-out: Log CFU Reduction (TBI treated)", "description": "as §1"}
{"smiles": "COc1ncccc1Nc1cc2nc3ccccc3n(-c3ccc(OC(F)(F)F)cc3)c-2c/c1=N\\C1CCC(OC)CC1", "note": "(stereo not drawn) [TBI-166, 5-(4-Trifluoromethoxyphenyl)-(4-methoxycyclohexyl)imino-2-(2-methoxy-3-pyridyl)amino-3,5-dihydrophenazine]", "log reduction at 20 mg/kg": 3.87}
{"smiles": "FC(F)(F)Oc1ccc(-n2c3c/c(=N\\C4CCOCC4)c(Nc4cccnc4)cc-3nc3ccccc32)cc1", "note": "[TBI-161, 5-(4-Trifluoromethoxyphenyl)-3-(4-tetrahydropyranyl)imino-2-(3-pyridyl)amino-3,5-dihydrophenazine]", "log reduction at 20 mg/kg": 2.77}
{"smiles": "COC1CCC(/N=c2\\cc3n(-c4ccc(Cl)cc4)c4ccccc4nc-3cc2Nc2ccc(C)nc2)CC1", "note": "(stereo not drawn) [TBI-450, 5-(4-Chlorophenyl)-3-(4-methoxycyclohexyl)imino-2-(6-methyl-3-pyridyl)amino-3,5-dihydrophenazine]", "log reduction at 20 mg/kg": 4.89}
{"smiles": "COc1ncccc1Nc1cc2nc3ccccc3n(-c3ccc(F)cc3)c-2c/c1=N\\C(C)C", "note": "[TBI-1004, 5-(4-Fluorophenyl)-3-(1-methylethyl)imino-2-(2-methoxy-3-pyridyl)amino-3,5-dihydrophenazine]", "log reduction at 20 mg/kg": 4.25}
